Laboratory results published in patent US20050208394A1, “Dye-containing curable composition, color filter and method of producing the color filter” (FUJI PHOTO FILM CO., LTD., priority 2004, published 2005).

How the values were obtained:
[1] = Light fastness: change in chromaticity ΔEab* of the coated glass substrate after xenon lamp irradiation; format: physicochemical; details: xenon lamp 50,000 Lux for 10 hours
Description: The glass substrate coated with the dye resist solution was irradiated with 50,000 Lux light from a xenon lamp for 10 hours (corresponding to 500,000 Lux·h) and then, a change in chromaticity, namely ΔEab* value, before and after the irradiation was measured. The obtained ΔEab* value was adopted as an index showing the degree of […] and evaluated based on the following criteria. The smaller the ΔEab* value is, the higher the […] is.
• A: ΔEab* was 3 or less. • B: ΔEab* exceeded 3 and was less than 10. • C: ΔEab* was 10 or more. —Pattern Shape—
A cyan pattern image was obtained by carrying out coating, prebaking, irradiation, developing, rinsing and drying in the same manner as in Example 1 and then heated at 180° C. for 5 minutes. Also, the heat resistance, light fastness and pattern shape were evaluated in the same manner as in Example 1 and also the solubility of the dye (exemplified compound (3)) was evaluated visually according to the same criteria as in Example 1 from the degree of solubility when the dye was dissolved in the above “1) Preparation of a dye resist solution (positive type dye-containing curable composition)”.

[2] = Heat resistance: change in chromaticity ΔEab* of the coated glass substrate after hot plate heating; format: physicochemical; details: 200° C. for one hour
Description: The glass substrate coated with the dye resist solution was placed on a hot plate such that its surface was in contact with the hot plate and heated at 200° C. for one hour to measure a change in chromaticity, namely ΔEab* value, before and after the substrate was placed, by using a chromaticity meter (trade name: MCPD-1000, manufactured by Otsuka Electronics Co., Ltd.). The obtained ΔEab* value was adopted as an index showing the degree of […] and evaluated based on the following criteria. The smaller the ΔEab* value is, the higher the heat resistance is.
• A: ΔEab* was 5 or less. • B: ΔEab* exceeded 5 and was less than 10. • C: ΔEab* was 10 or more. —Light Fastness—

[3] = positive type dye resist film on glass
[4] = negative type dye resist film on glass

Row | Light fastness [1, 3] | Heat resistance [2, 3] | Light fastness [1, 4] | Heat resistance [2, 4] | Compound
1 | A (ΔEab* was 3 or less.) | A (ΔEab* was 5 or less.) | – | – | Cc1cc(C)n(-c2ccc3c(c2)-c2nc-3nc3[n-]c(nc4nc(nc5[n-]c(n2)c2ccc(-n6nc(C)cc6C)cc52)-c2cc(-n5nc(C)cc5C)ccc2-4)c2ccc(-n4nc(C)cc4C)cc32)n1.[Ni+2] [Exemplified compound (16)]
2 | A (ΔEab* was 3 or less.) | A (ΔEab* was 5 or less.) | A (ΔEab* was 3 or less.) | A (ΔEab* was 5 or less.) | Tetra-α-(3,5-dimethylpyrazolyl)zinc phthalocyanine [Exemplified compound (3)]
3 | A (ΔEab* was 3 or less.) | A (ΔEab* was 5 or less.) | A (ΔEab* was 3 or less.) | A (ΔEab* was 5 or less.) | Tetra-β-(3,5-dimethylpyrazolyl)zinc phthalocyanine [Exemplified compound (4)]
